Laboratory results from US20210317143A9, “BORONIC ESTER PRODRUGS AND USES THEREOF” (Massachusetts Institute of Technology, priority 2019, published 2021).

How the values were obtained:
KMS11 cells = assay: In vitro cell viability assay (Celltiter glo) in KMS11; format: cell-based; conditions: Homo sapiens, KMS-11; KMS11, effect on cell proliferation after 48 h of incubation
Protocol: (§1) The effect on cell proliferation after 48 h of incubation with each agent was compared.
(§2) Both cell lines were cultured in RPMI media (ThermoFisher Scientific) supplemented with 10% FBS (VWR), 1% Penicillin/Streptomycin (ThermoFisher Scientific), and 1% glutamine (ThermoFisher Scientific). MM.1SLuc+/GFP+ cells were generated by retroviral transduction and authenticated by short tandem repeat DNA profiling. All cell lines were confirmed to be mycoplasma negative using the kit MycoAlert Mycoplasma (Lonza). Cell lines were housed in 5% CO2 and 37° C., incubators.
(§3) Cells were plated at 10,000 cells/well in a 96 well plate overnight and then treated for 48 hours with either bortezomib (Btz) or Btz-bottlebrush (BBP) at various concentrations. Cell viability assay was performed using the Celltiter glo reagent kit (Promega).
(§4) Toxicological studies were carried out including in vitro cell viability experiments and in vivo survivability studies (FIGS. 8A to 8B and FIG. 9A, respectively). The in vitro cell viability studies were carried out in both MM S model (for experimental details see Manier, S, et al., Science Translational Medicine 2017, 9, 389) and KMS11 flank cancer model. […] For the maximum tolerated dose (MTD) studies, animals (n=3-5) were dosed 4 times, with the exception that the 20 mg/kg group was dosed three times.

MM.1SLuc+/GFP+ cells = conditions: 0.75 mg/kg (free Btz MTD; Btz-BBP dose-match)
Protocol: The tumors were induced via intravenous injection of MM.1SLuc+/GFP+ cells, and tumor progression was quantified by bioluminescence via the luciferase signal expressed by the MM.1S cells (FIGS. 12A to 12F). […] Mice (n=5) were treated for 30 days with the same treatment groups and dosing schedule described in the previous tumor model.
The orthotopic model of MM was obtained by injecting intravenously 1.5 million MM.1SLuc+/GFP+ cells in the tail vain of SCID/beige mice. Tumor dissemination was assessed by IVIS imaging (IVIS Spectrum. Perkin Elmer, bioluminescence imaging, BLI) once a week. […] Drug was injected twice a week for a period of 2 weeks (4 injections in total). Tumor burden response was obtained by IVIS imaging performed once a week. After 25 days, treatment was stopped. Endpoint criteria of the study was hind limb paralysis or loss of >20% of their initial body weight.

MM.1S cells = assay: In vitro cell viability assay (Celltiter glo) in MM.1S; format: cell-based; conditions: Homo sapiens, MM1.S, effect on cell proliferation after 48 h of incubation
Protocol: as §1, §2, §3, §4

KMS11 subcutaneous tumor = assay: Efficacy study in subcutaneous model of MM (KMS11); format: in vivo, mice; conditions: 0.75 mg/kg twice a week (Btz at MTD; Btz-BBP dose-match, intravenous)
Protocol: Treatments were administered over a period of 50 days, after which tumor were left to freely progress.
The subcutaneous model of MM was generated with an injection of 3 million KMS11 cells in the hind flank of NCR nude mice. […] Tumor growth was monitor by caliper measurements (tumor measurement. TM). Once the tumor reached 1 cm in diameter, mice were randomly attributed to a treatment group. […] Drug was injected twice a week for a period of 4 weeks (8 injections in total) after mice were enrolled in the study. Mice body weight were tracked till day 50 (body weight measurement, BWM). Animals were sacrificed once the tumor reached 2 cm in the longest axis.

[1] = In vivo toxicity / maximum tolerated dose in healthy BALB/c mice; conditions: BALB/c, mouse, in vivo, subcutaneous
Protocol: (§5) Mice were euthanized if their body weight reached a 20% loss.
as §4

healthy BALB/c mice = assay: as above; conditions: twice a week
Protocol: as §5, §4

## CC(C)C[C@H](NC(=O)[C@H](Cc1ccccc1)NC(=O)c1cnccn1)B(O)O [Btz, bortezomib]
KMS11 cells
  IC50: 29.9 ± 1.6 nM
MM.1SLuc+/GFP+ cells
  therapeutic improvement: diminished improvements
MM.1S cells
  IC50: 3.5 ± 1.4 nM
KMS11 subcutaneous tumor
  mean survival time: 42 ± 6 days
[1]
  MTD at 4 weeks: 0.75 mg/kg
Healthy BALB/c mice; free Btz above 0.75 mg/kg (1, 1.25 mg/kg)
  survival rates at higher doses: rapid decrease of the survival rates
Healthy BALB/c mice; healthy BALB/c mice
  well-tolerated / safe dose: 0.75 mg/kg
